Data: PubChem BioAssay AID1918995 (Molecular Pharmacology Branch, DTP, NCI, 2023)

Test system: 324938-238-R-J1-PDC complex spheroid growth, % test/control
Test: Anticancer human tumor 324938-238-R-J1-PDC patient-derived bladder carcinoma cell line growth inhibition [AhR]
Conditions: for IC50: curve of first compound; for viability, T/C: stronger effect = lower value
Source text: Multicellular complex tumor spheroid response to aryl hydrocarbon receptor antagonists in combination with a variety of drugs and investigational agents in selected tumor cell lines
The current study was undertaken to assess response to aryl hydrocarbon receptor antagonists in combination with standard-of-care drugs and investigational agents in solid tumor complex spheroid models. Complex spheroids include a stromal component modeled by human endothelial cells (HUVEC) and fibroblasts modeled by human mesenchymal stem cells (MSCs). The concentration ranges selected for each drug and investigational agent were based upon clinically achievable concentrations if the clinical Cmax of the agent was known.
Compounds. The drugs and investigational agents: BAY 2416964 (NSC825713), GNF351 (NSC835774), CH-223191 (NSC835775), CPI-455 (NSC825282), aza-TdCyd (NSC777586), decitabine (NSC127716), belinostat (NSC758774), entinostat (NSC756642), pevonedistat (NSC761192), tazemetostat (NSC777109), talazoparib (NSC765396), olaparib (NSC753686), selinexor (NSC780203), nedisertib (M3814, NSC802822), bortezomib (NSC756655), venetoclax (NSC766270), doxorubicin (NSC123127), elimusertib (BAY189344, NSC800525), ceralasertib (AZD6738, NSC777638), TAK-243 (NSC785004), alisertib (NSC759677), etoposide (NSC141540), topotecan (NSC609699), eribulin (NSC707389), gemcitabine (NSC613327), carboplatin (NSC241240), cisplatin (NSC119875), and SN-38 (NSC673596) were obtained from the National Cancer Institute (NCI) Developmental Therapeutics Program Chemical Repository (32). The FDA-approved anticancer drug set is available from the Developmental Therapeutics Program at https://dtp.cancer.gov/organization/dscb/obtaining/available plates.htm. […] The stock solutions were prepared in dimethyl sulfoxide (DMSO, Sigma-Aldrich, St. Louis, MO, cat. D2650), except for the platinum compounds which were prepared in saline (Quality Biological, Gaithersburg, MD, cat. 114-055-101), at 800-fold the tested concentration and stored at -70 degrees C prior to their use. All drugs and investigational agents were tested over a range starting from a high concentration at or near the clinical Cmax and decreasing in half-log increments. If the clinical Cmax for an agent had not been determined, the highest concentration tested was 10 microM (Table 1).
Cell Culture. All cells were maintained in an incubator at 37 degrees C and 5% CO2 with 95% humidity. The PDC lines were cultured according to standard operating procedures established by the NCI PDMR (https://pdmr.cancer.gov). Briefly, all PDCs were thawed and cultured in Matrigel-coated flasks prepared with a working solution of 1X Ham's F-12 nutrient mix, without supplementation (Invitrogen, Waltham, MA, cat. 11765054), 100 U/mL penicillin-streptomycin (Invitrogen, cat. 15140122), and 2.5% Matrigel (Corning Inc., Corning, NY, cat. 354248) for the first three passages. All PDCs were cultured in complete DMEM/F-12 media containing advanced DMEM/F-12 (Invitrogen, cat. 12634028), 4.9% defined fetal bovine serum, heat inactivated (HyClone Laboratories Inc., Logan, UT, cat. SH30070.03HI), 389 ng/mL hydrocortisone (Sigma-Aldrich, cat. H4001), 9.7 ng/mL human EGF recombinant protein (Invitrogen, cat. PHG0313), 23.4 microg/mL adenine (Sigma-Aldrich, cat. A2786), 97.3 U/mL penicillin-streptomycin (Invitrogen, cat. 15140122), 1.9 mM L-glutamine (Invitrogen, cat. 25030081), and 9.7 microM Y-27632 dihydrochloride (Tocris Bioscience, Bristol, United Kingdom, cat. 1254). The PDCs were cultured in complete DMEM/F12 media without 10 microM Y-27632 dihydrochloride for at least two passages prior to the screen. The established cell lines NCI-H1341 and […] were cultured in DMEM/F-12, HEPES (Invitrogen, cat. 11330032), 5% defined fetal bovine serum (HyClone Laboratories Inc., cat. SH30070.03), ITS premix universal culture supplement [insulin (5 microg/mL), transferrin (5 microg/mL), and selenious acid (5 ng/mL)] […]

[1] = second compound 0.1 µM, first compound 0.0316 µM
[2] = second compound 0.1 µM, first compound 0.1 µM
[3] = second compound 0.1 µM, first compound 0.316 µM
[4] = second compound 0.1 µM, first compound 1 µM
[5] = second compound 0.1 µM, first compound 3.16 µM
[6] = second compound 0.1 µM, first compound 10 µM
[7] = second compound 0.316 µM, first compound 0.0316 µM
[8] = second compound 0.316 µM, first compound 0.1 µM
[9] = second compound 0.316 µM, first compound 0.316 µM
[10] = second compound 0.316 µM, first compound 1 µM
[11] = second compound 0.316 µM, first compound 3.16 µM
[12] = second compound 0.316 µM, first compound 10 µM
[13] = second compound 1 µM, first compound 0.0316 µM
[14] = second compound 1 µM, first compound 0.1 µM
[15] = second compound 1 µM, first compound 0.316 µM
[16] = second compound 1 µM, first compound 1 µM
[17] = second compound 1 µM, first compound 3.16 µM
[18] = second compound 1 µM, first compound 10 µM
[19] = second compound 3.16 µM, first compound 0.0316 µM
[20] = second compound 3.16 µM, first compound 0.1 µM
[21] = second compound 3.16 µM, first compound 0.316 µM
[22] = second compound 3.16 µM, first compound 1 µM
[23] = second compound 3.16 µM, first compound 3.16 µM
[24] = second compound 3.16 µM, first compound 10 µM
[25] = second compound 10 µM, first compound 0.0316 µM
[26] = second compound 10 µM, first compound 0.1 µM
[27] = second compound 10 µM, first compound 0.316 µM
[28] = second compound 10 µM, first compound 1 µM
[29] = second compound 10 µM, first compound 3.16 µM
[30] = second compound 10 µM, first compound 10 µM
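Note: spheroids exposed to agents for seven days before viability read.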

SMILES	IC50 (second compound 0.1 µM)	IC50 (second compound 0.316 µM)	IC50 (second compound 1 µM)	IC50 (second compound 3.16 µM)	IC50 (second compound 10 µM)	viability, T/C [1]	viability, T/C [2]	viability, T/C [3]	viability, T/C [4]	viability, T/C [5]	viability, T/C [6]	viability, T/C [7]	viability, T/C [8]	viability, T/C [9]	viability, T/C [10]	viability, T/C [11]	viability, T/C [12]	viability, T/C [13]	viability, T/C [14]	viability, T/C [15]	also measured
O=C(C=Cc1cccc(S(=O)(=O)Nc2ccccc2)c1)NO + Cc1cncc(-c2nc(NCCc3c[nH]c4ccccc34)c3ncn(C(C)C)c3n2)c1	3.65 µM	3.63 µM	3.03 µM	3.75 µM	< 0.0316 µM	121%	130%	95.4%	104%	53.5%	1.77%	101%	106%	95.3%	92.7%	56.2%	2.06%	112%	122%	96.5%	viability, T/C [16]: 95.2%; viability, T/C [17]: 46.6%; viability, T/C [18]: 3.32%; viability, T/C [19]: 133%; viability, T/C [20]: 109%; viability, T/C [21]: 125%; viability, T/C [22]: 87.7%; viability, T/C [23]: 60%; viability, T/C [24]: 0.96%; viability, T/C [25]: 9.41%; viability, T/C [26]: 28.3%; viability, T/C [27]: 40%; viability, T/C [28]: 63%; viability, T/C [29]: 61.8%; viability, T/C [30]: 0.41%
CC1(C)CCC(CN2CCN(c3ccc(C(=O)NS(=O)(=O)c4ccc(NCC5CCOCC5)c([N+](=O)[O-])c4)c(Oc4cnc5[nH]ccc5c4)c3)CC2)=C(c2ccc(Cl)cc2)C1 + CC(CO)NC(=O)c1cc(-c2ccc(Cl)cc2)nn(-c2cnn(C)c2)c1=O	> 10 µM	> 10 µM	> 10 µM	> 10 µM	> 10 µM	102%	101%	91.8%	77.1%	72.4%	61.4%	96.2%	96.7%	89.9%	82.2%	70.9%	61.8%	80.6%	87.9%	92.3%	viability, T/C [16]: 72%; viability, T/C [17]: 68.2%; viability, T/C [18]: 62%; viability, T/C [19]: 71.8%; viability, T/C [20]: 77.6%; viability, T/C [21]: 68.3%; viability, T/C [22]: 61.3%; viability, T/C [23]: 65.5%; viability, T/C [24]: 54.4%; viability, T/C [25]: 62.2%; viability, T/C [26]: 63.4%; viability, T/C [27]: 67.6%; viability, T/C [28]: 59.4%; viability, T/C [29]: 61.5%; viability, T/C [30]: 50.6%
Nc1ccccc1NC(=O)c1ccc(CNC(=O)OCc2cccnc2)cc1 + Cc1ccccc1N=Nc1ccc(NC(=O)c2ccnn2C)c(C)c1	2.23 µM	1.74 µM	3.83 µM	2.75 µM	3.09 µM	104%	118%	98.1%	62.1%	48.6%	38.3%	93.7%	110%	104%	55.5%	50.2%	37.8%	91.8%	94.5%	85.8%	viability, T/C [16]: 64.6%; viability, T/C [17]: 56%; viability, T/C [18]: 38%; viability, T/C [19]: 82.9%; viability, T/C [20]: 102%; viability, T/C [21]: 79.1%; viability, T/C [22]: 58.4%; viability, T/C [23]: 53.7%; viability, T/C [24]: 43.1%; viability, T/C [25]: 86.8%; viability, T/C [26]: 91.4%; viability, T/C [27]: 77.4%; viability, T/C [28]: 57.7%; viability, T/C [29]: 56.4%; viability, T/C [30]: 40.5%
